Measured values from US10287305B2, “Substituted piperidine compound and use thereof” (Takeda Pharmaceutical Company Limited, priority 2016, dated 2019).

Target: human orexin type 2 receptor (hOX2R) (Homo sapiens (Human), UniProt O43614)
Test: Measurement of orexin type 2 receptor agonist activity (Experimental Example 2-1, FLIPR TETRA, intracellular Ca2+)
Format: cell-based
Settings: CHO dhfr- cells expressing hOX2R; for Emax at 30 µM: value at 30 uM concentration, orexin B as full agonist = 100%; for Emax: read-out: Emax (%)
[1] = agonist activity, 10 nM human orexin B = 100%

human orexin type 2 receptor (hOX2R), sequence (O43614 whole entry): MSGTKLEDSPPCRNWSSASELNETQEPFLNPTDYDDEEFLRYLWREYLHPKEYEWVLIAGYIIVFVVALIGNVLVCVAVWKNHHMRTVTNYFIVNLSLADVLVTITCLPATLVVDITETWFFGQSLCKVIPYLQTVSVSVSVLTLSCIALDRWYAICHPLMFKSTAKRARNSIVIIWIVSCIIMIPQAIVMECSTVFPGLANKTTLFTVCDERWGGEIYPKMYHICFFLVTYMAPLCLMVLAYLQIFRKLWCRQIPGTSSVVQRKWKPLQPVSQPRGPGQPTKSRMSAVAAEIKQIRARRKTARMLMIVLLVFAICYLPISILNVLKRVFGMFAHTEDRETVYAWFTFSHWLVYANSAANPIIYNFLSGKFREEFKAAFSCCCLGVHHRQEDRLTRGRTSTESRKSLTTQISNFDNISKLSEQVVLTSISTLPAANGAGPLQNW

SMILES | EC50 [1] [nM] | Emax at 30 µM [%] | EC50 (FLIPR TETRA, Fluo-4AM) [nM] | Emax (FLIPR TETRA, Fluo-4AM) [%]
COC(=O)CCC(=O)N1CCC[C@H](NS(C)(=O)=O)[C@@H]1CO[C@H]1CC[C@@H](C(C)C)CC1 (relative stereo) [Example 55, methyl 4-(cis-2-(((cis-4-isopropylcyclohexyl)oxy)methyl)-3-((methylsulfonyl)amino)piperidin-1-yl)-4-oxobutanoate] | 140 | 97 |  | 
CN(C)S(=O)(=O)N[C@H]1CCCN(C(=O)OCC(F)(F)F)[C@H]1COC1CCN(c2ncccn2)CC1 (relative stereo) [Example 315, 2,2,2-trifluoroethyl cis-3-((dimethylsulfamoyl)amino)-2-(((1-(pyrimidin-2-yl)piperidin-4-yl)oxy)methyl)piperidine-1-carboxylate] |  |  | 170 | 103
CS(=O)(=O)N[C@H]1CCCN(C(=O)OC2CC2)[C@H]1CO[C@H]1CC[C@@H](c2cccc(F)c2)CC1 [Example 272, cyclopropyl (2R,3S)-2-(((cis-4-(3-fluorophenyl)cyclohexyl)oxy)methyl)-3-((methylsulfonyl)amino)piperidine-1-carboxylate] |  |  | 28 | 96
COCC(=O)N1CCC[C@H](NS(C)(=O)=O)[C@@H]1CO[C@H]1CC[C@@H](C(C)C)CC1 (relative stereo) [Example 45, N-(cis-2-(((cis-4-isopropylcyclohexyl)oxy)methyl)-1-(methoxyacetyl)piperidin-3-yl)methanesulfonamide] | 330 | 100 |  | 
CC(C)[C@H]1CC[C@@H](OC[C@H]2[C@@H](NS(C)(=O)=O)CCCN2C(=O)Oc2ccccc2)CC1 (relative stereo) [Example 43, phenyl cis-2-(((cis-4-isopropylcyclohexyl)oxy)methyl)-3-((methylsulfonyl)amino)piperidine-1-carboxylate] | 1100 | 93 |  | 
CCOC(=O)N1CCC[C@H](NS(C)(=O)=O)[C@@H]1COC1CCN(c2ccccc2F)CC1 (relative stereo) [Example 228, ethyl cis-2-(((1-(2-fluorophenyl)piperidin-4-yl)oxy)methyl)-3-((methylsulfonyl)amino)piperidine-1-carboxylate] |  |  | 2100 | 89
CCNC(=O)N1CCC[C@H](NS(C)(=O)=O)[C@@H]1CO[C@H]1CC[C@@H](c2cccc(C#N)c2)CC1 (relative stereo) [Example 254, cis-2-(((cis-4-(3-cyanophenyl)cyclohexyl)oxy)methyl)-N-ethyl-3-((methylsulfonyl)amino)piperidine-1-carboxamide] |  |  | 88 | 105
CS(=O)(=O)N[C@H]1CCCN[C@H]1CO[C@H]1CC[C@@H](c2cc(F)cc(F)c2)CC1 [Example 7, N-((2R,3S)-2-(((cis-4-(3,5-difluorophenyl)cyclohexyl)oxy)methyl)piperidin-3-yl)methanesulfonamide] | 250 | 100 |  | 
CS(=O)(=O)N[C@H]1CCCN[C@H]1CO[C@H]1CC[C@@H](c2ccccc2F)CC1 (relative stereo) [Example 115, N-(cis-2-(((cis-4-(2-fluorophenyl)cyclohexyl)oxy)methyl)piperidin-3-yl)methanesulfonamide] | 770 | 97 |  | 
CCNC(=O)N1CCC[C@H](NS(C)(=O)=O)[C@@H]1CO[C@H]1CC[C@@H](c2cccc(F)c2F)CC1 (relative stereo) [Example 136, cis-2-(((cis-4-(2,3-difluorophenyl)cyclohexyl)oxy)methyl)-N-ethyl-3-((methylsulfonyl)amino)piperidine-1-carboxamide] |  |  | 0.22 | 102
[2H]C([2H])([2H])OC(=O)N1CCC[C@H](NS(C)(=O)=O)[C@@H]1CO[C@H]1CC[C@@H](c2ccccc2)CC1 [Example 191, methyl-d3 (2R,3S)-3-((methylsulfonyl)amino)-2-(((cis-4-phenylcyclohexyl)oxy)methyl)piperidine-1-carboxylate] |  |  | 2.9 | 107
CS(=O)(=O)N[C@H]1CCCN(C(=O)C2CC2)[C@H]1COC1CCN(c2ncccn2)CC1 (relative stereo) [Example 196, N-(cis-1-(cyclopropylcarbonyl)-2-(((1-(pyrimidin-2-yl)piperidin-4-yl)oxy)methyl)piperidin-3-yl)methanesulfonamide] |  |  | 30 | 104
CC(=O)N1CCC[C@H](NS(C)(=O)=O)[C@@H]1CO[C@H]1CC[C@@H](c2ccc(F)cc2F)CC1 (relative stereo) [Example 145, N-(cis-1-acetyl-2-(((cis-4-(2,4-difluorophenyl)cyclohexyl)oxy)methyl)piperidin-3-yl)methanesulfonamide] |  |  | 810 | 106
CS(=O)(=O)N[C@H]1CCCN(C(=O)C2CC2)[C@H]1CO[C@H]1CC[C@@H](c2cccc(OC(F)(F)F)c2)CC1 (relative stereo) [Example 299, N-(cis-1-(cyclopropylcarbonyl)-2-(((cis-4-(3-(trifluoromethoxy)phenyl)cyclohexyl)oxy)methyl)piperidin-3-yl)methanesulfonamide] |  |  | 95 | 90
CS(=O)(=O)N[C@H]1CCCN(C(=O)C2CC(=O)C2)[C@H]1COC1CCN(c2ccccc2F)CC1 (relative stereo) [Example 233, N-(cis-2-(((1-(2-fluorophenyl)piperidin-4-yl)oxy)methyl)-1-((3-oxocyclobutyl)carbonyl)piperidin-3-yl)methanesulfonamide] |  |  | 5000 | 83
CS(=O)(=O)N[C@H]1CCCN(C(=O)[C@@H]2CCC(=O)O2)[C@H]1CO[C@H]1CC[C@@H](c2ccccc2)CC1 [Example 184, N-((2R,3S)-1-(((2S)-5-oxotetrahydrofuran-2-yl)carbonyl)-2-(((cis-4-phenylcyclohexyl)oxy)methyl)piperidin-3-yl)methanesulfonamide] |  |  | 9.3 | 93
CC(C)[C@H]1CC[C@@H](OC[C@H]2[C@@H](NS(C)(=O)=O)CCCN2C(=O)CCS(C)(=O)=O)CC1 (relative stereo) [Example 74, N-(cis-2-(((cis-4-isopropylcyclohexyl)oxy)methyl)-1-(3-(methylsulfonyl)-propanoyl)piperidin-3-yl)methanesulfonamide] | 750 | 89 |  | 
CC(C)OC(=O)N1CCC[C@H](NS(C)(=O)=O)[C@@H]1COC1CCN(c2ccccc2F)CC1 (relative stereo) [Example 237, isopropyl cis-2-(((1-(2-fluorophenyl)piperidin-4-yl)oxy)methyl)-3-((methylsulfonyl)amino)piperidine-1-carboxylate] |  |  | 490 | 90
CCNC(=O)N1CCC[C@H](NS(C)(=O)=O)[C@@H]1CO[C@H]1C[C@H](Oc2ccccc2)C1 (relative stereo) [Example 281, cis-N-ethyl-3-((methylsulfonyl)amino)-2-(((trans-3-phenoxycyclobutyl)oxy)methyl)piperidine-1-carboxamide] |  |  | 3300 | 81
CN(C)S(=O)(=O)N[C@H]1CCCN(C(=O)C2CC2)[C@H]1CO[C@H]1CC[C@@H](c2ccccc2)CC1 [Example 310, N′-((2R,3S)-1-(cyclopropylcarbonyl)-2-(((cis-4-phenylcyclohexyl)oxy)methyl)-piperidin-3-yl)-N,N-dimethylsulfuric diamide] |  |  | 2.2 | 101
COC(=O)N1CCC[C@H](NS(C)(=O)=O)[C@@H]1CO[C@H]1CC[C@]2(CC1)OCc1ccccc12 [Example 275, methyl cis-3-((methylsulfonyl)amino)-2-(((1s,4′s)-3H-spiro[2-benzofuran-1,1′-cyclohexan]-4′-yloxy)methyl)piperidine-1-carboxylate] |  |  | 3100 | 87
CS(=O)(=O)N[C@H]1CCCN(C(=O)C2CCC(F)(F)CC2)[C@H]1COC1CCN(c2ccccc2F)CC1 (relative stereo) [Example 238, N-(cis-1-((4,4-difluorocyclohexyl)carbonyl)-2-(((1-(2-fluorophenyl)piperidin-4-yl)oxy)methyl)piperidin-3-yl)methanesulfonamide] |  |  | 2100 | 91
CS(=O)(=O)N[C@H]1CCCN(C(=O)C2CC2)[C@H]1COC1CCN(c2ncc(F)cn2)CC1 (relative stereo) [Example 202, N-(cis-1-(cyclopropylcarbonyl)-2-(((1-(5-fluoropyrimidin-2-yl)piperidin-4-yl)oxy)methyl)piperidin-3-yl)methanesulfonamide] |  |  | 19 | 97
COCCNC(=O)N1CCC[C@H](NS(C)(=O)=O)[C@@H]1CO[C@H]1CC[C@@H](C(C)C)CC1 (relative stereo) [Example 96, cis-2-(((cis-4-isopropylcyclohexyl)oxy)methyl)-N-(2-methoxyethyl)-3-((methylsulfonyl)amino)piperidine-1-carboxamide] | 26 | 95 |  | 
CC(=O)N1CCC[C@H](NS(=O)(=O)C(C)C)[C@@H]1CO[C@H]1CC[C@@H](C(C)C)CC1 (relative stereo) [Example 76, N-(cis-1-acetyl-2-(((cis-4-isopropylcyclohexyl)oxy)methyl)piperidin-3-yl)propane-2-sulfonamide] | 300 | 103 |  | 
CS(=O)(=O)N[C@H]1CCCN(C(=O)[C@H]2CCOC2)[C@H]1CO[C@H]1CC[C@@H](c2ccccc2)CC1 [Example 149, N-(cis-2-(((cis-4-phenylcyclohexyl)oxy)methyl)-1-((3S)-tetrahydrofuran-3-ylcarbonyl)piperidin-3-yl)methanesulfonamide] |  |  | 25 | 100
COC(=O)N1CCC[C@H](NS(C)(=O)=O)[C@@H]1CO[C@H]1CC[C@@H](c2cccc(F)c2F)CC1 [Example 20, methyl (2R,3S)-2-(((cis-4-(2,3-difluorophenyl)cyclohexyl)oxy)methyl)-3-((methylsulfonyl)amino)piperidine-1-carboxylate] |  | 100 |  | 
